The values below come from patent publication US8633025B2, “Generation of neuronal cells from embryonic stem cells” (Universite Libre de Bruxelles, priority 2007, dated 2014).

The test system of assay [1] is ES cell-derived neurons. Briefly: Whole-cell patch clamp recording of spontaneous post-synaptic currents. The settings on record: for Inhibition of recorded ePSCs: NBQX 5 μM and APV 50 μM. Type of assay: cell-based, mouse. As to the method: Electrophysiological recordings were performed at room temperature (20-25° C.) in an external solution (ACSF) containing 120 mM NaCl, 26 mM NaHCO3, 11 mM D-glucose, 2 mM KCl, 2 mM CaCl2, 1.2 mM MgSO4 and 1.2 mM KH2PO4 with an osmolarity of 290 mOsm. The recording chamber was constantly superfused at a flow rate of 1 ml/min. […] Both pipette solutions were adjusted to pH 7.3 and 300-330 mOsm/l. Whole-cell patch clamp recordings were carried out with an EPC10 amplifier (HEKA, Elektronik, Lambrecht/Pfalz, Germany) in voltage clamp mode. Signals were filtered at 4 kHz using the built-in filter of EPC10 and digitally sampled at 20 kHz except spontaneous postsynaptic currents signals that were filtered at 2.5 kHz and digitally sampled at 5 kHz. Voltage protocol generation, data acquisition and analysis were made with Pulse 8.65 (HEKA, Elektronik, Lambrecht/Pfalz, Germany). The presence of spontaneous excitatory postsynaptic currents (sEPSCs) was assessed by clamping neurons to −60 mV in the presence of 100 μM picrotoxin. The presence of spontaneous inhibitory postsynaptic currents (sIPSCs) was assessed by clamping neurons to […] in the presence of 1 μM TTX, 5 μM 2,3-dioxo-6-nitro-1,2,3,4-tetrahydrobenzo[f]quinoxaline-7-sulfonamide disodium salt (NBQX) and 50 μM D-(−)-2-amino-5-phosphonopentanoic acid (APV). To further check the nature of spontaneous postsynaptic currents, NBQX (5 μM) and APV (50 μM) were used to block AMPA and NMDA receptors respectively and picrotoxin (100 μM) was used to block GABAA receptors. Fifteen neurons were recorded for each type of PSC and for each condition (DDM or DDM+cyclo).
For orientation: The patch-clamp technique gives a direct electrical read-out from membranes.

For assay [2], the system named is ES cells. The assay can be described thus: Regional identity markers among Nestin-positive neural progenitors from ES cells differentiated in DDM+cyclo (immunofluorescence). Type of assay: cell-based, mouse. As to the method:
Similar results were obtained with several ES cell lines, including distinct derivatives of E14 and J1 cells. ES cells were trypsinised, dissociated and plated at a density of 5×10^3 cells/cm^2 on gelatin-coated cell culture plastic dishes in ES medium. When needed, the cells were plated for 15-30 minutes on gelatin coated-dishes, to let the MEFS adhere and the supernatant containing ES cells only was recovered and subsequently replated on gelatin coated dishes. After adhesion, medium was changed to “Default Differentiation Medium” (DDM). DDM consists of DMEM/F12 (Invitrogen-Gibco) supplemented with 1×N2 supplement (100×N2 supplement consists of 8.61 μM insulin, 1 mM transferrin, 2 μM progesterone, 10.01 mM putrescine and 3.01 μM selenite; Invitrogen-Gibco), 2 mM glutamine (Invitrogen-Gibco), 1×MEM-nonessential amino acids (Invitrogen-Gibco), 1 mM sodium pyruvate (Invitrogen-Gibco), 110 μM beta-mercaptoethanol (Sigma) and 0.5 mg/ml Bovine Serum Albumine, Fraction V (Invitrogen-Gibco). Medium was changed every two days.
(§1) Medium was removed and cells were rinsed with PBS then fixed for 30 min in 4% paraformaldehyde (PFA) in PBS, pH 7.4 at 4° C. PFA was removed and cells were rinsed three times with PBS. Blocking of unspecific antibody activity and permeabilization was done in PBS supplemented with 5% horse serum (Invitrogen-Gibco), 3% bovine serum albumin (Sigma) and 0.3% Triton X-100 (Sigma). Incubation with primary antibodies was done in PBS supplemented with 1% horse serum, 3% bovine serum albumin and 0.1% Triton X-100 overnight at 4° C. Cells were rinsed three times with PBS and incubated with secondary antibodies in PBS supplemented with 1% horse serum, 3% bovine serum albumin and 0.1% Triton X-100 for one hour at room temperature then rinsed again three times with PBS. For double or multiple immunostaining, the process was repeated. Nuclei were stained with bisbenzimide (Hoechst#33258; Sigma) and coverslips were mounted with glycergel (DAKO). For some antibodies, antigen retrieval was used before blocking: cells were boiled during 4×5 minutes in 10 mM citrate buffer (pH 6.0) and cooled down to room temperature during 20 minutes.
(§2) For quantification of the proportion of cells expressing a specific marker (differentiation markers, region-specific markers, neurotransmitter transporter proteins or layer-specific markers), at least 300 cells from 3 independent experiments (at least 100 cells from each experiment) were counted for each time-point studied.
(§3) Experimental procedures were as described in Example 1. […] Ethanol was used as control.

For assay [3], the system named is ES cell-derived neurons. The assay can be described thus: Morphology and Pyramidal Morphology Index (PMI) of MAP2-positive neurons. The assay is classed as cell-based, mouse. From the text: Pictures of at least 100 neurons stained for MAP2 were to taken randomly for each condition and from two different experiments and the quantification was done blindly in Adobe Photoshop Software using a 25 μm circle drawn on a superposed layer.

In assay [4] the test system is ES cell-derived neural progenitors. Conditions: short BrdU pulse. As to the method: as §3
For long term pulse chase experiments, BrdU (Becton Dickinson) was added to the differentiation medium on the different days during 24 h at a final concentration of 10 μM. Cells were dissociated after 21 days of differentiation and plated on coated coverslips for an additional day. For short-term BrdU uptake experiments, BrdU was added to the differentiation medium during 1 hour prior to cell dissociation and replating.
For BrdU detection, medium was removed and cells were rinsed with PBS then fixed for 30 min in 4% paraformaldehyde (PFA) in PBS, pH 7.4 at 4° C. PFA was removed and cells were rinsed three times with PBS. BrdU was unmasked using an antigen retrieval method: cells were boiled during 4×5 minutes in 10 mM citrate buffer (pH 6.0) and cooled down to room temperature during 20 minutes. Immunostaining was performed as described above using mouse anti-BrdU (1/50, Becton Dickinson) or rat anti-BrdU (1/250, Abcam) antibodies. Multiple labelling was performed sequentially as described above.

For assay [5], the system named is ES cell-derived neurons. Briefly: Neurotransmission markers among Tuj1-positive neurons derived from ES cells (immunofluorescence). The assay is classed as cell-based, mouse. Conditions: of Tuj1-positive cells after 28 days of differentiation. As to the method: Similar results were obtained with several ES cell lines, including distinct derivatives of E14 and J1 cells. ES cells were trypsinised, dissociated and plated at a density of 5×10^3 cells/cm^2 on gelatin-coated cell culture plastic dishes in ES medium. When needed, the cells were plated for 15-30 minutes on gelatin coated-dishes, to let the MEFS adhere and the supernatant containing ES cells only was recovered and subsequently replated on gelatin coated dishes. After adhesion, medium was changed to “Default Differentiation Medium” (DDM). DDM consists of DMEM/F12 (Invitrogen-Gibco) supplemented with 1×N2 supplement (100×N2 supplement consists of 8.61 μM insulin, 1 mM transferrin, 2 μM progesterone, 10.01 mM putrescine and 3.01 μM selenite; Invitrogen-Gibco), 2 mM glutamine (Invitrogen-Gibco), 1×MEM-nonessential amino acids (Invitrogen-Gibco), 1 mM sodium pyruvate (Invitrogen-Gibco), 110 μM beta-mercaptoethanol (Sigma) and 0.5 mg/ml Bovine Serum Albumine, Fraction V (Invitrogen-Gibco). Medium was changed every two days. […]
For quantification of the proportion of cells expressing a specific marker (differentiation markers, region-specific markers, neurotransmitter transporter proteins or layer-specific markers), at least 300 cells from 3 independent experiments (at least 100 cells from each experiment) were counted for each time-point studied. […]

In assay [6] the test system is ES cell-derived neurons. The assay can be described thus: Layer-specific cortical markers among Tuj1+ neurons (immunofluorescence). Type of assay: cell-based, mouse. The settings on record: of all Tuj1+ neurons, days 16-21. As to the method:
as §1, with “Nuclei were stained with bisbenzimide (Hoechst#33258; Sigma) and coverslips were mounted with glycergel (DAKO).” left out
as §2
We studied the expression of the following layer-specific markers corresponding to the major subtypes of cortical neurons generated in vivo in the mouse, including: Tbr1 and reelin for preplate neurons and Cajal-Retzius cells; Tle4, Tbr1, CTIP2, Otx1, Er81, FoxP2 for deep ([…]) layer neurons; Satb2 and Cux1 for upper (II/III/IV) layer neurons and callosal projection neurons of layer V (see FIG. 5).

The subject of assay [7] is ES cell-derived neurons. The assay can be described thus: Slice overlay assay on postnatal cortical slices, radial orientation. The assay is classed as cell-based. Conditions: 21 days of differentiation, four days after plating on mouse postnatal cortical slices.
The subject of assay [8] is ES cell-derived neural progenitors. The assay can be described thus: Regional markers among Nestin-positive progenitors after DDM+Shh or DDM+Dkk. The assay is classed as cell-based, mouse. The settings on record: 14 days. As to the method:
FIG. 12 illustrates that neural progenitors and neurons of ventral telencephalic identity (including cortical interneurons, striatal interneurons, striatal projections neurons) can be generated from ES cells following DDM+Shh (at 1-10 μM) or DDM+DDK Wnt inhibitor (at 100-300 ng/ml), or a combination of both (at 1 μM/100 ng/ml respectively). (A) Proportion of Nestin positive neural progenitors expressing specific neural regionalization markers following 14 days of differentiation in DDM or DDM+Shh or DDM+DKK. (B), (C) Proportion of VgluT1, VgluT2 and vGAT, and reelin, Tbr1, Isl1 among Tuj1 positive neurons after 21 days of differentiation in DDM alone or DDM+Shh or DDM+DKK, or DDM+Shh/DKK.
To increase the proportion of ventral character of the ES cell-derived neural progenitors, we chose to increase Shh signalling, by adding soluble recombinant Shh to DDM, or to antagonize dorsalizing Wnt-signalling, by adding Dickkopf-1 (Dkk), a soluble antagonist of the Wnt pathway.

Where [9] appears, read: neurons after 28 days following differentiation in DDM.
The mark [10] stands for this setting: cyclopamine 1 μM day 2 to day 10, 14 days, of Nestin-positive cells.

Turning to “2,3-dioxo-6-nitro-1,2,3,4-tetrahydrobenzo[f]quinoxaline-7-sulfonamide disodium salt [NBQX]”, the “Inhibition of recorded ePSCs” value in assay [1] (setting [9]) was “selective inhibition”.

Regarding `CC1=C2C[C@H]3[C@@H](CC=C4C[C@@H](O)CC[C@@]43C)[C@@H]2CC[C@]12O[C@@H]1C[C@H](C)CN[C@H]1[C@H]2C` [cyclopamine], in assay [2] (cyclopamine 1 μM day 2 to day 10, 14 days of differentiation, of Nestin-positive cells), the “Otx1-2 positive neural progenitors” value was 75.57+/−1.21%. Also, in assay [2] (setting [10]), the “Gsh2 expression among neural progenitors” value is reported as 1.37+/−0.61%, the “Nkx2.1 expression among neural progenitors” value is on record as 1.87+/−1.10%, the “Nkx2.2 expression among neural progenitors” value was 4.05+/−1.10% and the “Otx1 expression among neural progenitors” value is reported as 71.21+/−2.52%. In addition, the “Pax6 expression among neural progenitors” value in assay [2] (setting [10]) was 73.03+/−2.44%. Further, the “Effect on the neuralization process (pattern of pan-neural markers)” value in assay [2] (different time points, compared with DDM without cyclopamine) is reported as “did not change significantly”. In addition, the “Neurons with PMI superior to the cut-off value” in assay [3] (cut-off 1.2 μm, of MAP2-positive neurons after 28 days of differentiation) is 77.23+/−4.17%. Moreover, the “PMI compared with DDM conditions” value in assay [3] (p<0.001, Mann-Whitney test) is recorded as “significantly higher PMI”. Further, the “Neurons showing a unipolar morphology” value in assay [3] (semi-quantitative scoring, MAP2-positive neurons, 28 days) is recorded as 61.39+/−4.84%. Besides, in assay [1], the “GABAergic inhibitory post-synaptic currents (iPSCs) recorded” value is recorded as “no or little iPSCs could be recorded” and the “Neurons displaying glutamatergic excitatory post-synaptic currents (ePSCs)” value is given as 38.89+/−11.49%. The “BrdU labelled neural progenitors, day 10” value in assay [4] (day 10) is 42.11+/−3.42%. Also, the “BrdU labelled neural progenitors, day 14” value in assay [4] (day 14) is 28.57+/−2.00%. In addition, in assay [5], the VGluT1 expressing neurons was 70.04+/−2.98% and the VGluT2 expressing neurons is listed as 15.46+/−2.52%. In addition, in assay [6], the CTIP2 expressing neurons is reported as 36.01+/−1.52%, the Cux1 expressing neurons was 10.56+/−0.80%, the Otx1 expressing neurons is 15.42+/−1.06% and the Satb2 expressing neurons is 7.60+/−0.78%. In addition, in assay [6], the Tbr1 expressing neurons is 38.14+/−1.54% and the reelin expressing neurons is reported as 21.18+/−1.28%. For the same molecule, the “Neurons displaying a radial orientation” value in assay [7] is 64.98+/−2.40%.

For the molecule picrotoxin, the “Inhibition of recorded iPSCs” value in assay [1] (neurons after 28 days following differentiation in DDM, picrotoxin 100 μM) is “selective inhibition”.

`N[C@H](CCCP(=O)(O)O)C(=O)O` [APV, D-(−)-2-amino-5-phosphonopentanoic acid]: in assay [1] (setting [9]), the “Inhibition of recorded ePSCs” value is “selective inhibition”.

B1: Dkk: Dickkopf-1 (Dkk), a soluble antagonist of the Wnt pathway (protein, UniProt O94907 32-266, looked up)
Dickkopf-related protein 1: TLNSVLNSNAIKNLPPPLGGAAGHPGSAVSAAPGILYPGGNKYQTIDNYQPYPCAEDEECGTDEYCASPTRGGDAGVQICLACRKRRKRCMRHAMCCPGNYCKNGICVSSDQNHFRGEIEETITESFGNDHSTLDGYSRRTTLSSKMYHTKGQEGSVCLRSSDCASGLCCARHFWSKICKPVLKEGQVCTKHRRKGSHGLEIFQRCYCGEGLSCRIQKDHHQASNSSRLHTCQRH
Turning to B1, the “Proportion of Nkx2.1 positive progenitors” value in assay [8] (300 ng/ml Dkk, of all Nestin-positive cells) worked out at 29.0±2.0%. Also, the “Expression of Pax6 among progenitors” value in assay [8] (Dkk 300 ng/ml, of Nestin-positive cells) came out at 23.7±1.4%.
